From patent US20170209402A1, “CARBOXY-CYCLOPROPYL UNDECANOL COMPOUNDS FOR TREATMENT OF LIVER DISEASE AND OTHER MEDICAL DISORDERS” (Esperion Therapeutics, Inc., priority 2014, published 2017)

Tested on: C57BL/6N male mice fed high-fat diet
Test: Hepatic triglyceride levels in C57BL/6N male mice receiving a high-fat diet
Format: in vivo
Settings: 3 weeks HFD, compound as diet admix 289 mg/kg HFD (~30 mg/kg/day) for final 2 weeks, 4-hour fast, group mean, HFD alone 1.6, NC 0.6
Protocol: An assay was performed to determine the effect of administering Compounds A and B to C57BL/6N male mice receiving a high-fat diet.
C57BL/6N male mice were obtained from Charles River Laboratories (Montreal, QC, Canada) at 11 weeks of age and singly housed on alpha-dri paper bedding on a normal 12 hour, 6 am-6 pm light-dark cycle. Upon arrival, 27 mice were fed D12492 high fat diets (HFD) containing 60% kcal fat while 9 mice were fed D12450K normal chow diet (NC) for 1 week with free access to water. Mice that had been fed D12492 were allocated into three equally distributed treatment arms of 9 mice each at 12 weeks of age based on 4-hour fasted blood glucose and body weight. […]
Following a 4-hour fast, mice were euthanized and a random lobe of liver was flash frozen in liquid nitrogen for subsequent hepatic lipid analysis. […] A 10 μL aliquot of the prepared sample was injected into the HPLC-ELSD system utilizing a Spherisorb® S5W Silica gel 5 μm, 100×4.6 mm ID HPLC column (Waters) running a 99:1 isooctane:tetrahydrofuran (mobile phase A), 2:1 acetone:CH2Cl2 (mobile phase B), 85:15 isopropanol:7.5 mM acetic acid/7.5 mM ethanolamine (mobile phase C) gradient before being detected using evaporative light scattering detection (ELSD) on an SEDEX® 75 detector (Sedere, Inc., Lawrenceville, N.J.). […]

SMILES | Hepatic TG [% w/w]
O=C(O)C1(CCCCCC(O)CCCCCC2(C(=O)O)CC2)CC1 [Compound A, 1,11-bis-(1-carboxy-cyclopropyl)-undecan-6-ol] | 0.6
CC(C)(CCCCCC(O)CCCCCC(C)(C)C(=O)O)C(=O)O [Compound B] | 1.1
